pIC50: −log10 of the molar value. Converted amounts (≈) assume the structure as drawn. Like-named read-outs stand apart in the source and are kept apart here.
Tests used:
[1] = Solubility in pH4.0 and pH7.4 phosphate buffer solution; format: physicochemical; details: phosphate buffer (PBS), aqueous buffer, kinetic from dmso stock, 2 hr incubation, 25° C.
Procedure: 1) Preparation of Stock Solutions
Diclofenac was used as positive control in the assay.
2) Procedures for Solubility Determination
This study was performed in duplicate. […] The filtered samples were diluted with methanol.
3) Samples Analyzed by LC-MS/MS

A549 = experiment: Anti-proliferative activity, CellTiterGlo assay, A549; format: cell-based; details: Homo sapiens; A549, 96 hrs incubation; read-out: Antiproliferative activities IC50, A549
Procedure: (§1) The anti-proliferative activities of the compounds against 6 human cancer cell lines were determined by CellTiterGlo assay kit. All cells were obtained from ATCC and cultured as recommended by the vendor. Cells were assayed in exponential growth phase. Sample solution was prepared by 3-fold serial dilution from 30 mM stock for 10 doses in DMSO. Antiproliferative activities were measured by CellTiterGlo assay kit according to the protocol after cells were incubated for 96 hrs in a 37° C., 5% CO2 incubator.
(§2) On the 4th day of incubation, i) 15 μl reagent (CelltiterGlo assay kit) was added per well and plate was shaken (avoiding light) for 2 mins on a plate shaker, ii) the plate was kept (avoiding light) in room temperature for 30 min, and iii) the luminescence value was recorded by Multiplate reader.

HT29 = experiment: Anti-proliferative activity, CellTiterGlo assay, HT29; format: cell-based; details: Homo sapiens, HT-29; HT29, 96 hrs incubation; read-out: Antiproliferative activities IC50, HT29
Procedure: as §1, §2

BxPC-3 = experiment: Anti-proliferative activity, CellTiterGlo assay, BxPC-3; format: cell-based; details: Homo sapiens; BxPC-3, 96 hrs incubation; read-out: Antiproliferative activities IC50, BxPC-3
Procedure: as §1, §2

LNCaP = experiment: Anti-proliferative activity, CellTiterGlo assay, LNCaP; format: cell-based; details: Homo sapiens, 96 hrs incubation, read-out: Antiproliferative activities IC50, LNCaP
Procedure: as §1, §2

MDA-MB-231 = experiment: Anti-proliferative activity, CellTiterGlo assay, MDA-MB-231; format: cell-based; details: Homo sapiens; MDA-MB-231, 96 hrs incubation; read-out: Antiproliferative activities IC50, MDA-MB-231
Procedure: as §1, §2

U87-MG = experiment: Anti-proliferative activity, CellTiterGlo assay, U87-MG; format: cell-based; details: Homo sapiens, U-87 MG, 96 hrs incubation, read-out: Antiproliferative activities IC50, U87-MG
Procedure: as §1, §2

[2] = Stability against human liver microsomes; format: in vitro ADME; details: 2 μM compound
Procedure: (§3) Determination of Stability Against Mouse and Human Mirosomes
(§4) Pooled human liver microsomes (Cat. 452161; Lot. 23418) were purchased from Corning and pooled male mouse liver microsomes (Cat. M1000; Lot. 1210302) were purchased from Xenotech. Microsomes were stored at −80° C. prior to use. 40 μL of ultra-pure H2O was used instead of NADPH solution in the negative control. The negative control was used to exclude the misleading factor that was resulted from instability of chemical itself. Samples with NADPH were prepared in duplicate. Negative controls were prepared in singlet.
(§5) The reaction was started with the addition of 4 μL of 200 μM compound solution to each master solution to get the final concentration of 2 μM. Verapamil was used as positive control in the assay. Aliquots of 50 μL were taken from the reaction solution at 0, 15, 30, 45 and 60 min. The reaction was stopped by addition of 4 volumes of cold acetonitrile with IS (200 nM imipramine, 200 nM labetalol and 2 μM ketoprofen). Samples were centrifuged at 3,220 g for 40 minutes. Aliquot of […] of the supernatant was mixed with 90 μL of ultra-pure H2O and then was used for LC-MS/MS analysis. Results are shown in Table 3 by indicating remaining % of the test compound after 60 minutes incubation with liver microsomes from human and mouse in the presence of NADPH.

[3] = Stability against mouse liver microsomes; format: in vitro ADME; details: mouse LM, 2 μM compound, 60 min, NADPH
Procedure: as §3, §4, §5

[4] = pH 4.0 phosphate buffer solution, read-out: Solubility, pH 4.0 PBS
[5] = pH 7.4 phosphate buffer solution, read-out: Solubility, pH 7.4 PBS

Structure (SMILES)	solubility at 2 h [1, 4]	solubility at 2 h [1, 5]	pIC50 (A549)	pIC50 (HT29)	pIC50 (BxPC-3)	pIC50 (LNCaP)	pIC50 (MDA-MB-231)	pIC50 (U87-MG)	Liver microsome stability remaining % after 60 min incubation with NADPH, human LM [2]	Liver microsome stability remaining % after 60 min incubation with NADPH, mouse LM [3]
CC(/C=C/[C@@]1(C)[C@H](C)CCC(NC2CC2)[C@@H]1C)=C\Cc1c(O)c(C=O)c(C)c(Cl)c1OCF (stereo partly drawn) [Compound 13, 3-chloro-5-[(2E,4E)-5-[(1R,2R,6R)-3-(cyclopropylamino)-1,2,6-trimethylcyclohexyl]-3-methylpenta-2,4-dien-1-yl]-4-(fluoromethoxy)-6-hydroxy-2-methylbenzaldehyde]	18 µM (≈ 8.6 µg/mL)	0.01 µM (≈ 0.00478 µg/mL)	5.70	5.44	5.66	6.10	5.28	5.52		
COc1c(Cl)c(C)c(/C=N/O)c(O)c1C/C=C(C)/C=C/[C@@]1(C)[C@H](C)CCC(C)(O)[C@@H]1C (stereo partly drawn) [Compound 7, (E)-3-chloro-6-hydroxy-5-((2E,4E)-5-((1R,2R,6R)-3-hydroxy-1,2,3,6-tetramethylcyclohexyl)-3-methylpenta-2,4-dien-1-yl)-4-methoxy-2-methylbenzaldehyde oxime]			5.19	5.00	4.89	5.14	5.17	4.88	71%	71%
CCNC1CC[C@@H](C)[C@](C)(/C=C/C(C)=C/Cc2c(O)c(C=O)c(C)c(Cl)c2OC)[C@H]1C (stereo partly drawn) [Compound 20, 3-chloro-5-[(2E,4E)-5-[(1R,2R,6R)-3-(ethylamino)-1,2,6-trimethylcyclohexyl]-3-methylpenta-2,4-dien-1-yl]-6-hydroxy-4-methoxy-2-methylbenzaldehyde]	186 µM (≈ 83.3 µg/mL)	0.32 µM (≈ 0.143 µg/mL)	5.32	5.57	5.64	5.72	5.39	5.64		
COc1c(Cl)c(C)c(C=O)c(O)c1C/C=C(C)/C=C/[C@@]1(C)[C@H](C)CCC(NC2CC2)[C@@H]1C (stereo partly drawn) [Compound 22, 3-chloro-5-[(2E,4E)-5-[(1R,2R,6R)-3-(cyclopropylamino)-1,2,6-trimethylcyclohexyl]-3-methylpenta-2,4-dien-1-yl]-6-hydroxy-4-methoxy-2-methylbenzaldehyde]	29 µM (≈ 13.3 µg/mL)	0.01 µM (≈ 0.0046 µg/mL)	5.72	5.42	5.57	5.96	5.22	5.49		
CC(/C=C/[C@@]1(C)[C@H](C)CC/C(=N\OCCN2CCOCC2)[C@@H]1C)=C\Cc1c(O)c(C=O)c(C)c(Cl)c1OCF [Compound 12, 3-chloro-4-(fluoromethoxy)-6-hydroxy-2-methyl-5-[(2E,4E)-3-methyl-5-[(1R,2R,3E,6R)-1,2,6-trimethyl-3-[[2-(morpholin-4-yl)ethoxy]imino]cyclohexyl]penta-2,4-dien-1-yl]benzaldehyde]			5.54	5.55	5.64	6.05	5.24	5.44		
CC(/C=C/[C@@]1(C)[C@H](C)CC/C(=N\O)[C@@H]1C)=C\Cc1c(O)c(/C=N/O)c(C)c(Cl)c1OCF [Compound 4, 4-chloro-3-(fluoromethoxy)-2-[(2E,4E)-5-[(1R,2R,3E,6R)-3-(hydroxyimino)-1,2,6-trimethylcyclohexyl]-3-methylpenta-2,4-dien-1-yl]-6-[(1E)-(hydroxyimino)methyl]-5-methylphenol]			5.37	5.19	4.94	5.38	5.29	5.04	67%	47%

— patent US10968186B2, “Ascochlorin derivative and use thereof as AMPK activator” (priority 2016, dated 2021)
